The target in the test is Glycogen synthase kinase-3 (Homo sapiens, UniProt P49840+P49841). In words: Inhibitory concentration against Glycogen synthase kinase-3. The test is classed as protein assay.

SMILES strings stand for the structures.

On to `c1ccc(-c2cc3[nH]ccnc-3n2)cc1`, for which the “Log IC50” value is reported as -5.64. On to `Fc1ccc(-c2cc3[nH]ccnc-3n2)cc1`, for which the “Log IC50” value is listed as -5.72.

Regarding `Clc1ccc(-c2[nH]c3nccnc3c2CC2CCCCC2)cc1`, the “Log IC50” value is -5.1. For `CCCCc1c(-c2ccc(Cl)cc2)[nH]c2nccnc12` the value was -5.23; for `Cc1ccc(-c2cc3[nH]ccnc-3n2)cc1`, -5.59. For `CCCc1c(-c2ccc(OC)cc2)[nH]c2nccnc12` the value was -6.4; for `COc1ccc(-c2[nH]c3nccnc3c2C(C)C)cc1`, -6.3; for `Clc1ccc(-c2[nH]c3nccnc3c2Cc2ccccc2)cc1`, -5.17.

`COc1cc(-c2cc3[nH]ccnc-3n2)cc(OC)c1OC`: the “Log IC50” value is listed as -4.7. For `COc1ccc(-c2[nH]c3nccnc3c2C)cc1OC` the value was -5.7. Turning to `Oc1ccc(-c2[nH]c3nccnc3c2CC2CC2)cc1`, the “Log IC50” value is reported as -5.52.

As to `COc1ccc(-c2[nH]c3nccnc3c2CC2CC2)cc1`, the “Log IC50” value is -5.96.

In the case of `CCCCCCCc1c(-c2ccc(OC)cc2)[nH]c2nccnc12`, the “Log IC50” value was -5. With `C=CCc1c(-c2ccc(OC)cc2)[nH]c2nccnc12` the figure was -6.22. For `COc1ccc(-c2[nH]c3nccnc3c2CCCCl)cc1` the value was -5.6. With `COc1cc(OC)cc(-c2cc3[nH]ccnc-3n2)c1` the figure was -4.22; with `COc1ccc(-c2cc3[nH]ccnc-3n2)cc1`, -5.96. As for `CCCc1c(-c2ccc(O)cc2)[nH]c2nccnc12`, the “Log IC50” value is -5.74. For `FC(F)(F)c1ccc(-c2cc3[nH]ccnc-3n2)cc1` the value was -5.14. For `Brc1ccc(-c2cc3[nH]ccnc-3n2)cc1` the value was -5.22; for `CC(C)c1c(-c2ccc(Cl)cc2)[nH]c2nccnc12`, -6.12; for `COc1ccc(-c2[nH]c3nccnc3c2C)cc1`, -6.34. With `CN(C)c1ccc(-c2cc3[nH]ccnc-3n2)cc1`, the “Log IC50” value is given as -4.92.

On to `c1ccc(Cc2c(-c3ccccc3)[nH]c3nccnc23)cc1`, for which the “Log IC50” value is -6. For `Cc1c(-c2ccc(OS(=O)(=O)N(C)C)cc2)[nH]c2nccnc12` the value was -6.3. For `Oc1ccccc1-c1cc2[nH]ccnc-2n1` the value was -5.19; for `COc1ccccc1-c1cc2[nH]ccnc-2n1`, -5.48. With `Cc1c(-c2ccc(O)cc2)[nH]c2nccnc12` the figure was -6.28; with `N#Cc1ccc(-c2cc3[nH]ccnc-3n2)cc1`, -5.32. Turning to `COc1ccc(-c2[nH]c3nccnc3c2CC2CCCCC2)cc1`, the “Log IC50” value is reported as -5.17. For `Cc1c(-c2ccc(Cl)cc2)[nH]c2nccnc12` the value was -5.77; for `COc1cccc(-c2cc3[nH]ccnc-3n2)c1`, -5.5.

Consider `Oc1ccc(-c2cc3[nH]ccnc-3n2)cc1`, for which the “Log IC50” value is -5.92. For `CCCCc1c(-c2ccc(OC)cc2)[nH]c2nccnc12` [ALOISINE] the value was -6.04.

The values are drawn from ChEMBL document CHEMBL1144250, “3D QSAR studies on GSK-3 inhibition by aloisines” (Bioorg Med Chem Lett, 2005).
